According to patent US10829756B2, “Discovery of enzymes from the alpha-keto acid decarboxylase family” (Regents of the University of California, priority 2015, dated 2020):

What was measured:
[1] = system: Streptomyces sp. C GEO175 variant L376T_T240S, SEQ ID NO:19; assay: Steady-state kinetics of 2-ketoacid decarboxylase (ADH/NADH coupled); type: biochemical; settings: relative to GEO 175, same conditions
Description: FIG. 6: Depicts results of kinetic characterization of GEO 175 and GEO 175 L376T_T240S. Kinetic constants were measured as described herein. The substrate 2-ketooctanoate carbon chain numbering referred to in the text is numbered in white. According to the molecular model of GEO 175, the double mutation L376T_T240S is predicted to recede the pocket by 1.4 Å and remove interactions between the binding pocket and carbon 8 of the ketoacid alkyl chain. […]
For the native KIVD and KIVD_VLV mutant, 2 ml overnight cultures of XL1B cells were transformed with pQE9 containing N-terminal his-tagged KIVD enzymes and grown in Terrific Broth (BP biomedical, Cat#3046-042) with 50 μg/mL of carbenicillin. […] Protein concentrations were determined using a Synergy H1 spectrophotometer (Biotek) by measuring absorbance at 280 nm using their calculated extinction coefficients with ExPASy ProtParam Tool.^33 All other buffers and salts were purchased from Fisher Scientific unless otherwise specified.
The kcat and KM values of selective KIVD mutants were measured for the substrates: C3, C5, isoC5, and C8. […] Activity was measured at 0.005 mM to 10 mM substrates. […]

[2] = system: E. coli strain (ATCC 98082 pZS_thrO, pZAlac_ilvA_LeuA, pZE12LeuA*BCDKA6_KIVD_wt); assay: Alcohol toxicity: growth (OD600) of the alcohol production strain over 7 hours; type: cell-based; settings: 7-hour incubation
Description: Alcohol tolerance of the in vivo alcohol production strain was evaluated by supplementing the fermentation media with specified quantities of long chain alcohols, and measuring growth over 7 hours. Both the E. coli strain (ATCC 98082 pZS_thrO, pZAlac_ilvA_LeuA, pZE12LeuA*BCDKA6_KIVD_wt) and fermentation media (1×M9 metals+1× trace metal mix+0.5% yeast extract+2% glucose+antibiotics) and conditions are the same as described above (Fermentation procedure and analysis). Cells were grown in media without IPTG-induction to a starting OD600 ˜0.02 and then supplemented with either 1-petanol, 1-hexanol, 1-heptanol, or 1-octanol at specified concentrations of 10 mg/L, 50 mg/L, 250 mg/L, 500 mg/L, or 1000 mg/L. OD600 readings were taken hourly up to 7 hours.

[3] = target: GEO179, 2-ketoacid decarboxylase, SEQ ID NO:14 (Klebsiella variicola, UniProt A0ACD7F8P2, H281L/S236A/T380V); assay: Steady-state kinetics of 2-ketoacid decarboxylase (ADH/NADH coupled); type: biochemical; settings: pH 7.5, 21° C.
Excerpt: (§1) FIG. 20: Depicts results of a structural alignment of GEOs and KIVD (GEO175=SEQ ID NO:2, GEO243=SEQ ID NO:5, GEO 250=SEQ ID NO:6, GEO 242=SEQ ID NO:7, GEO 245=SEQ ID NO:8, GEO 251=SEQ ID NO:9, GEO 247=SEQ ID NO:10, GEO 244=SEQ ID NO:11, GEO 246=SEQ ID NO:12, GEO 248=SEQ ID NO:13, GEO 179=SEQ ID NO:14, GEO 240=SEQ ID NO:15, GEO 195=SEQ ID NO:16, GEO 241=SEQ ID NO:17, GEO 249=SEQ ID NO:4, KIVD_VLV=SEQ ID NO:3). Active site residues are denoted with a black box under the residue letter.
(§2) For the native KIVD and KIVD_VLV mutant, 2 ml overnight cultures of XL1B cells were transformed with pQE9 containing N-terminal his-tagged KIVD enzymes and grown in Terrific Broth (BP biomedical, Cat#3046-042) with 50 μg/mL of carbenicillin. (Fisher scientific, Cat# BP2648-5) For the GEOs, 2 ml overnight cultures of BLR cells were transformed with pet29b+ plasmid containing N-terminal his-tagged GEOs, and grown in Terrific Broth with 50 μg/mL of kanamycin. (Fisher scientific, Cat# BP906-5) These cultures were diluted 1:1000 in 500 mL of Terrific Broth with 1 mM MgSO4, 1% glucose, and 50ug/mL of corresponding antibiotics, then grown at 37° C. for 24 hours. Cultures were pelleted down at 4700 rpm for 10 mins and resuspended in auto-induction media (LB broth, 1 mM MgSO4, 0.1 mM TPP, 1×NPS, and 1×5052) for induction at 18° C. for 34 hours. […] Protein concentrations were determined using a Synergy H1 spectrophotometer (Biotek) by measuring absorbance at 280 nm using their calculated extinction coefficients with ExPASy ProtParam Tool.^33 All other buffers and salts were purchased from Fisher Scientific unless otherwise specified.
(§3) The kcat and KM values of selective KIVD mutants were measured for the substrates: C3, C5, isoC5, and C8. […] Activity was measured at 0.005 mM to 10 mM substrates. […] Absorbance readings were taken every 1-minute at OD340 at 21° C. for 60 minutes using the Synergy H1. Kinetic parameters (kcat and KM) were determined by fitting initial velocity versus substrate concentration data to the Michaelis-Menten equation.

[4] = system: GEO195, 2-ketoacid decarboxylase, SEQ ID NO:16; assay: as above; type: biochemical; settings: pH 7.5, 21° C.
Excerpt: as §1, §2, §3

[5] = 250 mg l^−1 alcohol supplemented, OD 1.9 without toxicity
[6] = 500 mg l^−1 alcohol supplemented
[7] = 1000 mg l^−1 alcohol supplemented

Chain of GEO179, 2-ketoacid decarboxylase, SEQ ID NO:14 (A0ACD7F8P2 entry or part of it H281L/S236A/T380V): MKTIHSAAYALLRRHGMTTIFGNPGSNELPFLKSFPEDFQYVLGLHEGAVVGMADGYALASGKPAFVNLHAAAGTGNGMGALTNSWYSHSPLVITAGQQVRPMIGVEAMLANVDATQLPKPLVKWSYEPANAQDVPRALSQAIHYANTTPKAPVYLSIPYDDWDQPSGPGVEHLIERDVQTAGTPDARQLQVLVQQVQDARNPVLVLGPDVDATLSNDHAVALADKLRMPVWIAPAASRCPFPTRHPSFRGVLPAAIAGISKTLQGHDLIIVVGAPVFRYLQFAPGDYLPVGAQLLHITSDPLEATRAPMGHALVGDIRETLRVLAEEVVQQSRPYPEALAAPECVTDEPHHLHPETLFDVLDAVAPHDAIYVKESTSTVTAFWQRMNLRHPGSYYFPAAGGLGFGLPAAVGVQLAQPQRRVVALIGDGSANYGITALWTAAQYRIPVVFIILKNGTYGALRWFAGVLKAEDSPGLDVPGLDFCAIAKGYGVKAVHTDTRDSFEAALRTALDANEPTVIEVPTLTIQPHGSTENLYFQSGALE

Compound | decrease in catalytic efficiency relative to GEO 175 [1] | final OD of E. coli cultures [2, 5] | final OD of E. coli cultures [2, 6] | final OD of E. coli cultures [2, 7] | other results
CC(=O)C(=O)O [C3] | less than 2 fold | – | – | – | –
CCCCCCCCO [C8 alcohol, 1-octanol] | – | ~1.0 | No significant growth | – | –
CCCCCCCO [heptanol, 1-heptanol] | – | approximately 1.6 | 0.1 | no significant growth | –
CCCCCCO [hexanol, 1-hexanol] | – | approximately 1.6 | 1.0 | 0.2 | –
CC(C)C(=O)C(=O)O [iso C5, 2-ketoisovaleric acid] | less than 2 fold | – | – | – | kcat [3]: 0.39 ± 0.01 s⁻¹; Km [4]: 9.1 ± 0.3 mM; kcat [4]: 0.072 ± 0.001 s⁻¹
CCCCCO [pentanol, 1-pentanol] | – | – | – | 1.5 | –
